Legend:
ALOMY [1] = assay: Pre-emergence action against ALOMY, 1280 g/ha; format: in vivo, Alopecurus myosuroides; conditions: visual scoring after about 3 weeks vs untreated controls, 100% = plants have died, 0% = like control plants
In short: (§1)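 Compound applied as WP or EC in aqueous spray (0.5% additive, 600 L/ha) to the surface of sandy loam covering freshly sown seeds. After about 3 weeks under good greenhouse conditions, damage is given as visual percentage, 100% meaning plant death.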

DIGSA [2] = assay: Pre-emergence action against DIGSA, 1280 g/ha; format: in vivo, Digitaria sanguinalis; conditions: visual scoring after about 3 weeks vs untreated controls, 100% = plants have died, 0% = like control plants
In short: as §1

ECHCG [3] = assay: Pre-emergence action against ECHCG, 1280 g/ha; format: in vivo, Echinochloa crus-galli; conditions: visual scoring after about 3 weeks vs untreated controls, 100% = plants have died, 0% = like control plants
In short: as §1

LOLRI [4] = assay: Pre-emergence action against LOLRI, 1280 g/ha; format: in vivo, Lolium rigidum; conditions: visual scoring after about 3 weeks vs untreated controls, 100% = plants have died, 0% = like control plants
In short: as §1

POAAN [5] = assay: Pre-emergence action against POAAN, 1280 g/ha; format: in vivo, Poa annua; conditions: visual scoring after about 3 weeks vs untreated controls, 100% = plants have died, 0% = like control plants
In short: as §1

SETVI [6] = assay: Pre-emergence action against SETVI, 1280 g/ha; format: in vivo, Setaria viridis; conditions: visual scoring after about 3 weeks vs untreated controls, 100% = plants have died, 0% = like control plants
In short: as §1

AMARE [7] = assay: Pre-emergence action against AMARE, 1280 g/ha; format: in vivo, Amaranthus retroflexus; conditions: scored visually after about 3 weeks vs untreated controls (100% = plants have died)
In short: as §1

MATIN [8] = assay: Pre-emergence action against MATIN, 1280 g/ha; format: in vivo, Tripleurospermum inodorum (Matricaria inodora); conditions: scored visually after about 3 weeks vs untreated controls (100% = plants have died)
In short: as §1

STEME [9] = assay: Pre-emergence action against STEME, 1280 g/ha; format: in vivo, Stellaria media; conditions: scored visually after about 3 weeks vs untreated controls (100% = plants have died)
In short: as §1

VERPE [10] = assay: Pre-emergence action against VERPE, 1280 g/ha; format: in vivo, Veronica persica; conditions: scored visually after about 3 weeks vs untreated controls (100% = plants have died)
In short: as §1

ALOMY [11] = assay: Pre-emergence action at 320 g/ha against ALOMY; format: in vivo, Alopecurus myosuroides; conditions: scored visually after about 3 weeks vs untreated controls (100% = plants have died)
In short: (§2)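 Visual % scoring at about 3 weeks post-treatment against untreated pots (0% = like control, 100% = dead), greenhouse-grown. Compounds applied at 320 g/ha as aqueous WP/EC suspension or emulsion plus 0.5% additive, 600 l/ha water, onto covering soil of freshly sown pots before emergence.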

DIGSA [12] = assay: Pre-emergence action at 320 g/ha against DIGSA; format: in vivo, Digitaria sanguinalis; conditions: visual scoring after about 3 weeks vs untreated controls
Text: (§3) b) Seeds of monocotyledonous and dicotyledonous weed plants and crop plants are placed in plastic or organic planting pots and covered with soil. The compounds of the invention, formulated in the form of wettable powders (WP) or as emulsion concentrates (EC), are then applied onto the surface of the covering soil as aqueous suspension or emulsion with addition of 0.5% additive at a water application rate of 600 l/ha (converted). After the treatment, the pots are placed in a greenhouse and kept under good growth conditions for the trial plants. After about 3 weeks, the effect of the preparations is scored visually in comparison with untreated controls as percentages. For example, 100% activity=the plants have died, 0% activity=like control plants. Tables 13 to 26 below show the effects of selected compounds of the general formula (I) on various harmful plants and at an application rate corresponding to 320 g/ha, which were obtained by the experimental procedure mentioned above.

ECHGC = assay: Pre-emergence action at 320 g/ha against ECHGC; format: in vivo, Echinochloa crus-galli; conditions: visual scoring after about 3 weeks vs untreated controls
Text: as §3

LOLRI [13] = assay: Pre-emergence action at 320 g/ha against LOLRI; format: in vivo, Lolium rigidum; conditions: visual scoring after about 3 weeks vs untreated controls
Text: as §3

SETVI [14] = assay: Pre-emergence action at 320 g/ha against SETVI; format: in vivo, Setaria viridis; conditions: visual scoring after about 3 weeks vs untreated controls
Text: as §3

AMARE [15] = assay: Pre-emergence action at 320 g/ha against AMARE; format: in vivo, Amaranthus retroflexus; conditions: visual scoring after about 3 weeks vs untreated controls
In short: as §2

MATIN [16] = assay: Pre-emergence action at 320 g/ha against MATIN; format: in vivo, Tripleurospermum inodorum (Matricaria inodora); conditions: visual scoring after about 3 weeks vs untreated controls
Text: as §3

VIOTR = assay: Pre-emergence action at 320 g/ha against VIOTR; format: in vivo, Viola tricolor; conditions: dosage 320 g/ha
In short: as §2

ALOMY [17] = assay: Post-emergence action against ALOMY, 1.28 kg/ha; format: in vivo, Alopecurus myosuroides; conditions: dosage 1280 g/ha, visual rating about 3 weeks after treatment vs untreated controls
In short: (§4)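 Foliar application at the one-leaf stage: compound as WP or EC in water with 0.5% additive, sprayed at 600 L/ha. Plants are kept about 3 weeks in the greenhouse, then % herbicidal action is estimated visually (100% = death).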

DIGSA [18] = assay: Post-emergence action against DIGSA, 1.28 kg/ha; format: in vivo, Digitaria sanguinalis; conditions: dosage 1280 g/ha, visual rating about 3 weeks after treatment vs untreated controls
In short: as §4

ECHCG [19] = assay: Post-emergence action against ECHCG, 1.28 kg/ha; format: in vivo, Echinochloa crus-galli; conditions: dosage 1280 g/ha, visual rating about 3 weeks after treatment vs untreated controls
In short: as §4

POAAN [20] = assay: Post-emergence action against POAAN, 1.28 kg/ha; format: in vivo, Poa annua; conditions: dosage 1280 g/ha, visual rating about 3 weeks after treatment vs untreated controls
In short: as §4

SETVI [21] = assay: Post-emergence action against SETVI, 1.28 kg/ha; format: in vivo, Setaria viridis; conditions: dosage 1280 g/ha, visual rating about 3 weeks after treatment vs untreated controls
In short: as §4

ABUTH = assay: Post-emergence action against ABUTH, 1.28 kg/ha; format: in vivo, Abutilon theophrasti; conditions: dosage 1280 g/ha, visual rating about 3 weeks after treatment vs untreated controls (100% = plants died)
In short: as §4

AMARE [22] = assay: Post-emergence action against AMARE, 1.28 kg/ha; format: in vivo, Amaranthus retroflexus; conditions: dosage 1280 g/ha, visual rating about 3 weeks after treatment vs untreated controls (100% = plants died)
In short: as §4

MATIN [23] = assay: Post-emergence action against MATIN, 1.28 kg/ha; format: in vivo, Tripleurospermum inodorum (Matricaria inodora); conditions: dosage 1280 g/ha, visual rating about 3 weeks after treatment vs untreated controls (100% = plants died)
In short: as §4

VERPE [24] = assay: Post-emergence action against VERPE, 1.28 kg/ha; format: in vivo, Veronica persica; conditions: dosage 1280 g/ha, visual rating about 3 weeks after treatment vs untreated controls (100% = plants died)
In short: as §4

AVEFA = assay: Pre-emergence action at 320 g/ha against AVEFA; format: in vivo; conditions: visual scoring after about 3 weeks vs untreated controls
Text: as §3

POLCO = assay: Pre-emergence action at 320 g/ha against POLCO; format: in vivo, Fallopia convolvulus (Polygonum convolvulus); conditions: visual scoring after about 3 weeks vs untreated controls
In short: as §2

VERPE [25] = assay: Pre-emergence action at 320 g/ha against VERPE; format: in vivo, Veronica persica; conditions: visual scoring after about 3 weeks vs untreated controls
Text: as §3

LOLRI [26] = assay: Post-emergence action against LOLRI, 1.28 kg/ha; format: in vivo, Lolium rigidum; conditions: dosage 1280 g/ha, visual rating about 3 weeks after treatment vs untreated controls
Procedure: • a) Seeds of mono- and dicotyledonous weed plants are placed in plastic pots in sandy loam soil (twin sowing with one species each of mono- or dicotyledonous weed plants per pot), covered with soil and cultivated in a greenhouse under controlled growth conditions. 2 to 3 weeks after sowing, the test plants are treated at the one-leaf stage. The compounds of the invention, formulated in the form of wettable powders (WP) or as emulsion concentrates (EC), are applied to the green parts of the plants as aqueous suspension or emulsion with addition of 0.5% additive at a water application rate equivalent to 600 litres per hectare. After the test plants have been kept in the greenhouse under optimum growth conditions for about 3 weeks, the activity of the preparations is rated visually in comparison to untreated controls. For example, 100% activity=the plants have died, 0% activity=like control plants. As shown by the results, compounds of the general formula (I) of the invention, in post-emergence treatment, have very good herbicidal efficacy (90% to 100% herbicidal action) against harmful plants such as Abutilon theophrasti, Digitaria sanguinalis, Echinochloa crus-galli, Matricaria inodora, Poa annua, at an application rate of 1.28 kg of active substance per hectare.

STEME [27] = assay: Post-emergence action against STEME, 1.28 kg/ha; format: in vivo, Stellaria media; conditions: dosage 1280 g/ha, visual rating about 3 weeks after treatment vs untreated controls (100% = plants died)
In short: as §4

| Structure (SMILES) | Pre-emergence action against ALOMY (ALOMY [1]) | Pre-emergence action against DIGSA (DIGSA [2]) | Pre-emergence action against ECHCG (ECHCG [3]) | Pre-emergence action against LOLRI (LOLRI [4]) | Pre-emergence action against POAAN (POAAN [5]) | Pre-emergence action against SETVI (SETVI [6]) | Pre-emergence action against AMARE (AMARE [7]) | Pre-emergence action against MATIN (MATIN [8]) | Pre-emergence action against STEME (STEME [9]) | Pre-emergence action against VERPE (VERPE [10]) | Pre-emergence action at 320 g/ha against ALOMY in % (ALOMY [11]) | Pre-emergence action against ECHGC in % (ECHGC) | Pre-emergence action against LOLRI in % (LOLRI [13]) | Pre-emergence action against SETVI in % (SETVI [14]) | Pre-emergence action against AMARE in % (AMARE [15]) | Pre-emergence action against MATIN in % (MATIN [16]) | Pre-emergence action against VIOTR in % (VIOTR) | Post-emergence action against ALOMY (ALOMY [17]) | Post-emergence action against DIGSA (DIGSA [18]) | Post-emergence action against ECHCG (ECHCG [19]) | other results |
| --- | --- | --- | --- | --- | --- | --- | --- | --- | --- | --- | --- | --- | --- | --- | --- | --- | --- | --- | --- | --- | --- |
| O=C(COc1nn(-c2ccccc2F)c(-c2ccnc(F)c2)c1Br)OCC1CCOC1 (stereo not shown) [VIII-011] | 90% | 90% | 100% | 100% | 100% | 100% | 100% | 100% | 100% | 100% | 100% | 90% | 90% | 90% | 100% | 90% | 100% | 100% | 100% | 100% | Pre-emergence action against DIGSA in % (DIGSA [12]): 100%; Post-emergence action against POAAN (POAAN [20]): 100%; Post-emergence action against SETVI (SETVI [21]): 100%; Post-emergence action against ABUTH (ABUTH): 90%; Post-emergence action against AMARE (AMARE [22]): 100%; Post-emergence action against MATIN (MATIN [23]): 90%; Post-emergence action against VERPE (VERPE [24]): 100% |
| COC(=O)C1CCCN1C(=O)COc1nn(-c2ccccc2F)c(-c2ccc(F)nc2)c1Br (stereo not shown) [Example X-016] |  |  |  |  |  |  |  |  |  |  | 100% | 90% | 90% | 100% | 100% | 90% | 100% |  |  |  | Pre-emergence action against AVEFA in % (AVEFA): 90%; Pre-emergence action against POLCO in % (POLCO): 80%; Pre-emergence action against VERPE in % (VERPE [25]): 100% |
| CCOC(=O)COc1nn(-c2ccccc2F)c(-c2ccc(F)nc2)c1C1CC1 [VII-119] | 100% | 100% | 100% | 100% | 100% | 100% | 100% | 100% | 100% | 100% |  |  |  |  |  |  |  | 100% | 100% | 100% | Post-emergence action against LOLRI (LOLRI [26]): 100%; Post-emergence action against POAAN (POAAN [20]): 100%; Post-emergence action against SETVI (SETVI [21]): 100%; Post-emergence action against ABUTH (ABUTH): 90%; Post-emergence action against AMARE (AMARE [22]): 100%; Post-emergence action against MATIN (MATIN [23]): 100%; Post-emergence action against STEME (STEME [27]): 100%; Post-emergence action against VERPE (VERPE [24]): 100% |

Reference: patent US12180187B2, “1-phenyl-5-azinylpyrazolyl-3-oxyalkyl acids and their use for controlling unwanted plant growth” (BAYER AKTIENGESELLSCHAFT, priority 2019, dated 2024)
